Patent US7521540B2, “CYR61 compositions and methods” (Munin Corporation, priority 1996, dated 2009)

Tests used:
[1] = tested on: HUVE cells; assay: Thymidine incorporation (mitogen potentiation), HUVE cells; type: cell-based, human
Procedure: Human umbilical vein endothelial cells were plated essentially as described above for 3T3 cells and exposed to a constant amount of murine Cyr61; controls received no Cyr61. Different plates were then exposed to different levels of bFGF, comprising a series of bFGF concentrations ranging from 0-10 ng/ml. […] At 1 ng/ml bFGF, however, HUVE cells increased their thymidine incorporation in the presence of bFGF to 6×10^2 cpm; in the presence of 1 ng/ml bFGF and murine Cyr61, HUVE cells incorporated 1.3×10^3 cpm. At 10 ng/ml bFGF, cells exposed to bFGF incorporated about 1.8×10^3 cpm thymidine; cells receiving 10 ng/ml bFGF and Cyr61 incorporated approximately 6.1×10^3 cpm.
The capacity of murine Cyr61 to potentiate the mitogenic activity of bFGF was verified by a thymidine incorporation assay involving HUVE cells and various combinations of bFGF, Cyr61, and anti-Cyr61 antibodies. Cells were plated and grown as described above. The following combinations of supplements (final plate concentrations noted parenthetically) were then pre-incubated for 1 hour before addition to individual plates: 1) pre-immune antiserum (3%); 2) bFGF (15 ng/ml) and pre-immune antiserum (3%); 3) pre-immune antiserum (3%) and Cyr61 (4 μg/ml); 4) pre-immune antiserum (3%), Cyr61 (4 μg/ml), and bFGF (15 ng/ml); 5) anti-Cyr61 antiserum (3%); 6) anti-Cyr61 antiserum and bFGF (15 ng/ml); 7) anti-Cyr61 antiserum (3%) and Cyr61 (4 μg/ml); and 8) anti-Cyr61 antiserum (3%), Cyr61 (4 μg/ml), and bFGF (15 ng/ml).
DNA synthesis for HUVE cells and NIH 3T3 fibroblasts was measured by thymidine incorporation as described previously (Kireeva et al., [1996]) with minor modifications. HUVE cells were grown in 24-well plates to a subconfluent state, serum-starved for 24 hours and treated with F12K medium containing 10% fetal bovine serum (FBS), 1 μCi/ml [^3H]-thymidine and 10 ng/ml basic Fibroblast Growth Factor (bFGF) (Gibco-BRL, Inc.) with various concentrations of Cyr61 and Fisp12 as indicated. […] Thymidine incorporation into the trichloroacetic acid-insoluble fraction was determined after 24 hour incubation. […]

[2] = tested on: Human Microvascular Endothelial Cells; assay: In vitro migration assay for angiogenesis inhibitors; type: cell-based; conditions: bFGF 10 ng/ml; Cyr61; IGF-II
Procedure: As in the preceding Example, human microvascular endothelial cells (Clonetics) were used. In one series of assays, several carbohydrates and carbohydrate derivatives were analyzed. These compounds included 10 mM mannose, 10 mM mannose-6-phosphate, and 10 mM galactose. […] Cyr61 plus galactose induced the migration of approximately 74 cells per set of three high-powered fields. […] The angiogenic activity of basic FGF (10 ng/ml) was also tested, as described above, with and without mannose-6-phosphate. In the presence of 10 mM mannose-6-phosphate, bFGF induced 51 cells per set of three high-powered fields to migrate; in its absence, bFGF induced the migration of approximately 52 cells. […] The effect of mannose-6-phosphate on IGF II activity was anticipated because mannose-6-phosphate is known to compete with IGF II for their common receptor (the IGF II receptor). […] Moreover, because there is an essentially perfect correlation between the in vitro migration assay and the in vivo angiogenesis assay, described below, mannose-6-phosphate has been identified as an inhibitor of angiogenesis based on the results of the assay disclosed herein. Accordingly, the invention contemplates a method of inhibiting angiogenesis comprising the step of administering an inhibitor the angiogenic activity of Cyr61 such as mannose-6-phosphate. Assays such as that described above may also be used to screen for other inhibitors of angiogenesis which may be useful in the treatment of diseases associated with angiogenesis such as cancer, and diseases of the eye which are accompanied by neovascularization.

[3] = tested on: NIH 3T3 fibroblasts; assay: Thymidine incorporation (mitogen potentiation), NIH 3T3; type: cell-based, mouse; conditions: bFGF 15 ng/ml or PDGF-BB 30 ng/ml
Procedure: More specifically, NIH 3T3 fibroblast cells were plated on 24-well plates at 3×10^4 cells/well and grown in DMEM with 10% fetal bovine serum (Intergen Co., Purchase, N.Y.) for 3-4 days and incubated with medium containing 0.2% FBS for the following 48 hours. The following compounds, at the parenthetically noted final concentrations, were then added to the plated cells in fresh DMEM containing 0.2% fbs and [^3H]-thymidine (1 μCi/ml final concentration; ICN Biomedicals, Inc., Costa Mesa, Calif.): bFGF (15 ng/ml), PDGF-BB (30 ng/ml), and murine Cyr61 (0.5-5 μg/ml). These compounds were added to individual plates according to the following pattern: 1) no supplementation; 2) murine Cyr61; 3) bFGF; 4) murine Cyr61 and bFGF; 5) PDGF-BB; and 6) murine Cyr61 and PDGF. After 18-20 hours of incubation, cells were washed with PBS and fixed with 10% trichloroacetic acid. DNA was dissolved in 0.1 N NaOH and thymidine incorporation was determined. […] Without any supplements, 3T3 cells incorporated approximately 1.8×10^4 cpm of [^3H]-thymidine, in the presence or absence of Cyr61. […]
DNA synthesis for HUVE cells and NIH 3T3 fibroblasts was measured by thymidine incorporation as described previously (Kireeva et al., [1996]) with minor modifications. […] Thymidine incorporation into the trichloroacetic acid-insoluble fraction was determined after 24 hour incubation. […]

bFGF: Growth factor used as positive control [reference compound]
thymidine incorporation, baseline ([1]; 0-0.1 ng/ml bFGF, presence or absence of Cyr61, 72 hours): approximately 4×10^2 cpm | thymidine incorporation, bFGF alone ([1]; 1 ng/ml bFGF): 6×10^2 cpm | thymidine incorporation, bFGF alone ([1]; 10 ng/ml bFGF): about 1.8×10^3 cpm | migrating cells, chemoattractant without mannose-6-phosphate [2]: approximately 52 cells | [3H]-thymidine incorporation, growth factor alone [3]: about 1.2×10^5 cpm
